In publication PMC3312352, “Peptides of the Constant Region of Antibodies Display Fungicidal Activity” (PLoS ONE, 2012):
Read-outs that look alike come from different tables or passages of the source. Ends that are not written are not given here. Peptide text beside a SMILES is read from it.

Experiments:
C. albicans SC5314 [1] = conditions: SC5314, 6 h
Description: (§1) Selected Fc-peptides, or their asds, were preliminarily tested at the concentration of 100 µg/ml. […] Conventional colony forming unit (CFU) assays were performed as previously described [2]. Briefly, yeast cells from a fresh (20 h at 30°C) actively growing colony on Sabouraud Dextrose agar (SDA) (C. albicans, C. glabrata, C. neoformans) or on SDA supplemented with 1% Tween 20 (M. furfur) were suspended in 199 medium. Initial germination was induced in C. albicans cells by incubation for 1 h at 37°C with shaking. Suspensions were properly diluted to obtain approximately 500 fungal cells in 100 µl of distilled water in the presence or absence (control growth) of the synthetic Fc-peptide to be tested. Cell suspensions were incubated at 37°C for 6 h, then plated on SDA or SDA-Tween. CFU were enumerated after 48–72 h of incubation at 30°C, and peptide fungicidal activity was determined as percentage of CFU inhibition, according to the formula 100-(CFU Fc-peptide treated/CFU control growth)×100. Each assay was carried out in triplicate for statistical purposes.
(§2) EC50 was calculated by nonlinear regression analysis using Graph Pad Prism 4.01 software, San Diego, CA, USA.

C. albicans CA-6 = conditions: CA-6, 6 h
Description: as §1, §2

C. albicans SA40 = conditions: SA40, 6 h
Description: as §1, §2

C. albicans AIDS68 [2] = conditions: AIDS68, 6 h
Description: as §1, §2

C. albicans UM4 = conditions: UM4, 6 h
Description: as §1, §2

C. glabrata OMNI32 = conditions: OMNI32, 6 h
Description: as §1, §2

C. neoformans 6995 = conditions: 6995, 6 h
Description: as §1, §2

M. furfur 101 = conditions: 6 h
Description: as §1, §2

C. albicans AIDS68 [3] = experiment: Experimental vaginal candidiasis in mice; assay type: in vivo, Candida albicans; conditions: mice infected with C. albicans AIDS68; 100 µg in PBS at 1, 24, 48 h after challenge
C. albicans SC5314 [4] = experiment: CFU assay, in vitro fungicidal activity; conditions: for EC50 asd/EC50 T11F / EC50 asd/EC50 N10K: ratio of EC50 values against C. albicans SC5314; for EC50: read-out: EC50 (95% confidence intervals), scalar dilutions, 6 h at 37°C in distilled water, nonlinear regression; for EC50 / % inhibitory activity at 100 µg/ml in comparison to the control growth (water): CFU assay, C. albicans SC5314, triplicate; for % inhibitory activity at 100 µg/ml in comparison to the control growth (water): peptide 100 µg/ml, ~500 cells in 100 µl distilled water, 6 h at 37°C
Description: as §1, §2

Molecule: CC(C)C[C@H](NC(=O)[C@H](C)NC(=O)[C@H](CCC(=O)O)NC(=O)[C@@H](N)Cc1c[nH]cn1)C(=O)O [Peptide H4L] (H-HEAL-OH; N-terminus and C-terminus assumed)
- % inhibitory activity at 100 µg/ml in comparison to the control growth (water) (C. albicans SC5314 [1]): 84.34%
- % inhibitory activity at 100 µg/ml in comparison to the control growth (water) (C. albicans CA-6): 57.04%
- % inhibitory activity at 100 µg/ml in comparison to the control growth (water) (C. albicans SA40): 55.99%
- % inhibitory activity at 100 µg/ml in comparison to the control growth (water) (C. albicans AIDS68 [2]): 59.82%
- % inhibitory activity at 100 µg/ml in comparison to the control growth (water) (C. albicans UM4): 64.63%
- % inhibitory activity at 100 µg/ml in comparison to the control growth (water) (C. glabrata OMNI32): 80.49%
- % inhibitory activity at 100 µg/ml in comparison to the control growth (water) (C. neoformans 6995): 85.08%
- % inhibitory activity at 100 µg/ml in comparison to the control growth (water) (M. furfur 101): 92.04%

Molecule: OC(Cn1cncn1)(Cn1cncn1)c1ccc(F)cc1F [fluconazole]
- response of vaginal infection to treatment (C. albicans AIDS68 [3]): resistant to treatment

Molecule: ACRVDHRGLTF [Peptide T1A]
- % inhibitory activity at 100 µg/ml in comparison to the control growth (water) (C. albicans SC5314 [1]): 100%
- EC50 asd/EC50 T11F (C. albicans SC5314 [4]): 0.48
- EC50 (C. albicans SC5314 [4]): 0.738 µM

Molecule: AQVSLTCLVK [Peptide N1A]
- EC50 (C. albicans SC5314 [1]): 0.587 µM
- % inhibitory activity at 100 µg/ml in comparison to the control growth (water) (C. albicans SC5314 [1]): 100%
- EC50 asd/EC50 N10K (C. albicans SC5314 [4]): 0.58

Molecule: NAVSLTCLVK [Peptide Q2A]
- EC50 (C. albicans SC5314 [1]): 2.31 µM
- % inhibitory activity at 100 µg/ml in comparison to the control growth (water) (C. albicans SC5314 [1]): 100%
- EC50 asd/EC50 N10K (C. albicans SC5314 [4]): 2.30

Molecule: NQASLTCLVK [Peptide V3A]
- EC50 (C. albicans SC5314 [1]): 5.93 µM
- % inhibitory activity at 100 µg/ml in comparison to the control growth (water) (C. albicans SC5314 [4]): 100%
- EC50 asd/EC50 N10K (C. albicans SC5314 [4]): 5.91

Molecule: NQVALTCLVK [Peptide S4A]
- EC50 (C. albicans SC5314 [1]): 2.39 µM
- % inhibitory activity at 100 µg/ml in comparison to the control growth (water) (C. albicans SC5314 [1]): 100%
- EC50 asd/EC50 N10K (C. albicans SC5314 [4]): 2.38

Molecule: NQVSATCLVK [Peptide L5A]
- EC50 (C. albicans SC5314 [1]): 0.885 µM
- % inhibitory activity at 100 µg/ml in comparison to the control growth (water) (C. albicans SC5314 [1]): 100%
- EC50 asd/EC50 N10K (C. albicans SC5314 [4]): 0.88

Molecule: NQVSLACLVK [Peptide T6A]
- EC50 (C. albicans SC5314 [1]): 4.88 µM
- % inhibitory activity at 100 µg/ml in comparison to the control growth (water) (C. albicans SC5314 [1]): 100%
- EC50 asd/EC50 N10K (C. albicans SC5314 [4]): 4.86

Molecule: NQVSLTALVK [Peptide C7A]
- EC50 (C. albicans SC5314 [1]): 54.9 µM
- % inhibitory activity at 100 µg/ml in comparison to the control growth (water) (C. albicans SC5314 [1]): 73.41%
- EC50 asd/EC50 N10K (C. albicans SC5314 [4]): 54.66

Molecule: NQVSLTCAVK [Peptide L8A]
- EC50 (C. albicans SC5314 [1]): 0.744 µM
- % inhibitory activity at 100 µg/ml in comparison to the control growth (water) (C. albicans SC5314 [4]): 100%
- EC50 asd/EC50 N10K (C. albicans SC5314 [4]): 0.74

Molecule: NQVSLTCLAK [Peptide V9A]
- EC50 (C. albicans SC5314 [1]): 1.78 µM
- % inhibitory activity at 100 µg/ml in comparison to the control growth (water) (C. albicans SC5314 [1]): 100%
- EC50 asd/EC50 N10K (C. albicans SC5314 [4]): 1.77

Molecule: NQVSLTCLVA [Peptide K10A]
- % inhibitory activity at 100 µg/ml in comparison to the control growth (water) (C. albicans SC5314 [1]): 0%

Molecule: NQVSLTCLVK [Peptide N10K]
- % inhibitory activity at 100 µg/ml in comparison to the control growth (water) (C. albicans SC5314 [1]): 100%
- % inhibitory activity at 100 µg/ml in comparison to the control growth (water) (C. albicans CA-6): 100%
- % inhibitory activity at 100 µg/ml in comparison to the control growth (water) (C. albicans SA40): 100%
- % inhibitory activity at 100 µg/ml in comparison to the control growth (water) (C. albicans AIDS68 [2]): 100%
- % inhibitory activity at 100 µg/ml in comparison to the control growth (water) (C. albicans UM4): 100%
- % inhibitory activity at 100 µg/ml in comparison to the control growth (water) (C. glabrata OMNI32): 100%
- % inhibitory activity at 100 µg/ml in comparison to the control growth (water) (C. neoformans 6995): 100%
- % inhibitory activity at 100 µg/ml in comparison to the control growth (water) (M. furfur 101): 100%

Molecule: TARVDHRGLTF [Peptide C2A]
- % inhibitory activity at 100 µg/ml in comparison to the control growth (water) (C. albicans SC5314 [1]): 79.32%
- EC50 asd/EC50 T11F (C. albicans SC5314 [4]): 21.12
- EC50 (C. albicans SC5314 [4]): 32.5 µM

Molecule: TCAVDHRGLTF [Peptide R3A]
- % inhibitory activity at 100 µg/ml in comparison to the control growth (water) (C. albicans SC5314 [1]): 97.61%
- EC50 asd/EC50 T11F (C. albicans SC5314 [4]): 8.74
- EC50 (C. albicans SC5314 [4]): 13.5 µM

Molecule: TCRADHRGLTF [Peptide V4A]
- % inhibitory activity at 100 µg/ml in comparison to the control growth (water) (C. albicans SC5314 [1]): 100%
- EC50 asd/EC50 T11F (C. albicans SC5314 [4]): 0.74
- EC50 (C. albicans SC5314 [4]): 1.13 µM

Molecule: TCRVAHRGLTF [Peptide D5A]
- % inhibitory activity at 100 µg/ml in comparison to the control growth (water) (C. albicans SC5314 [1]): 100%
- EC50 asd/EC50 T11F (C. albicans SC5314 [4]): 0.26
- EC50 (C. albicans SC5314 [4]): 0.395 µM

Molecule: TCRVDARGLTF [Peptide H6A]
- % inhibitory activity at 100 µg/ml in comparison to the control growth (water) (C. albicans SC5314 [1]): 100%
- EC50 asd/EC50 T11F (C. albicans SC5314 [4]): 6.76
- EC50 (C. albicans SC5314 [4]): 10.4 µM

Molecule: TCRVDHAGLTF [Peptide R7A]
- % inhibitory activity at 100 µg/ml in comparison to the control growth (water) (C. albicans SC5314 [1]): 100%
- EC50 asd/EC50 T11F (C. albicans SC5314 [4]): 7.83
- EC50 (C. albicans SC5314 [4]): 12.1 µM

Molecule: TCRVDHRALTF [Peptide G8A]
- % inhibitory activity at 100 µg/ml in comparison to the control growth (water) (C. albicans SC5314 [1]): 100%
- EC50 asd/EC50 T11F (C. albicans SC5314 [4]): 1.01
- EC50 (C. albicans SC5314 [4]): 1.55 µM

Molecule: TCRVDHRGATF [Peptide L9A]
- % inhibitory activity at 100 µg/ml in comparison to the control growth (water) (C. albicans SC5314 [1]): 100%
- EC50 asd/EC50 T11F (C. albicans SC5314 [4]): 1.14
- EC50 (C. albicans SC5314 [4]): 1.75 µM

Molecule: TCRVDHRGLAF [Peptide T10A]
- % inhibitory activity at 100 µg/ml in comparison to the control growth (water) (C. albicans SC5314 [1]): 100%
- EC50 asd/EC50 T11F (C. albicans SC5314 [4]): 0.55
- EC50 (C. albicans SC5314 [4]): 0.85 µM

Molecule: TCRVDHRGLTA [Peptide F11A]
- % inhibitory activity at 100 µg/ml in comparison to the control growth (water) (C. albicans SC5314 [1]): 100%
- EC50 asd/EC50 T11F (C. albicans SC5314 [4]): 1.64
- EC50 (C. albicans SC5314 [4]): 2.52 µM

Molecule: TCRVDHRGLTF [Peptide T11F]
- % inhibitory activity at 100 µg/ml in comparison to the control growth (water) (C. albicans SC5314 [1]): 100%
- % inhibitory activity at 100 µg/ml in comparison to the control growth (water) (C. albicans CA-6): 100%
- % inhibitory activity at 100 µg/ml in comparison to the control growth (water) (C. albicans SA40): 100%
- % inhibitory activity at 100 µg/ml in comparison to the control growth (water) (C. albicans AIDS68 [2]): 100%
- % inhibitory activity at 100 µg/ml in comparison to the control growth (water) (C. albicans UM4): 100%
- % inhibitory activity at 100 µg/ml in comparison to the control growth (water) (C. glabrata OMNI32): 100%
- % inhibitory activity at 100 µg/ml in comparison to the control growth (water) (C. neoformans 6995): 100%
- % inhibitory activity at 100 µg/ml in comparison to the control growth (water) (M. furfur 101): 100%
